“And” between values parts separate entries of the source, which are not always exact repeats. Equal entries are not always repeated.
Experiments:
[1] = Open label two way randomized crossover pharmacokinetic / absolute bioavailability study, SL ketamine wafer 25 mg vs 10 mg i.v. infusion; settings: for clearance: CL, clearance following i.v. administration; for bioavailability: other: sublingual, F; for half-life: median (min-max in text) of eight healthy volunteers; for extrapolated portion of the AUC(0,∞): min-max
Protocol: The study was of open label two way randomized, crossover design in eight healthy male volunteers who all gave written informed consent. Each participant received either a single 10 mg i.v. dose as a constant rate 30 min infusion or a 25 mg SL dose of ketamine in two treatment periods with a 7 day washout. Both the SL and i.v. doses, and the duration of the i.v. infusion were chosen to ensure adequate characterization of the plasma concentration-time profiles and good quality estimates of pharmacokinetic (PK) variables for both routes of administration. […] The sequence of the two formulations was according to a computer-generated randomization code.
The SL wafer formulation was a freeze dried solid dispersion of racemic ketamine hydrochloride in a porous matrix using lactose as a filling agent. Prior to administration of the wafer the sublingual space was rinsed with 3 ml of water after which the wafer was placed sublingually by a member of the study staff. The participants were instructed to avoid chewing or swallowing of the wafer within 5 min of its placement. For i.v. administration, commercially available ketamine (Ketalar®) was diluted to 30 ml in saline and administered over 30 min using a volumetrically controlled syringe driver. The infusion line was primed prior to start of the infusion.
Pharmacokinetic blood sampling and clinical assessment of local tolerability and safety were carried out for 24 h following both dosing occasions.
Key inclusion criteria were healthy adult males aged 18-65 years with a BMI 19-30 kg m^−2 in good general health including mental health as assessed by the Symptom Checklist-90-R (SCL-90-R®), a screening instrument which evaluates a broad range of psychological problems and symptoms of psychopathology. Pharmacokinetic blood samples (5 ml), were taken following both i.v. and SL administration at predose 5, 10, 15, 30, 35 and 45 min, and at 1.0, 1.5, 2.0, 2.5, 3.0, 4.0, 6.0, 8.0,12 and 24 h post-dose.
Whole blood was drawn into prechilled lithium heparin tubes and remained on ice post-sample collection until centrifugation. Samples were centrifuged at 1800 g for 10 min in a refrigerated centrifuge at 4° C. Plasma was decanted and frozen at-80° C.
Safety laboratory testing (biochemistry, haematology and urinalysis) was performed predose and at hour 24 post-dose administration in each period. Quantification of the plasma concentrations of racemic ketamine was performed using a validated HPLC method with u.v. detection, a lower limit of quantification (LLOQ) of 2 ng ml^−1 and <20% bias and imprecision.
Standard non-compartmental methods using the PK Solver plug-in for Microsoft
Excel were used to derive pharmacokinetic variables, except for Cmax, Tmax and Tlast, which were taken as observations from the plasma concentration-time profile of each participant. Actual times were used when reporting Tmax. The terminal rate constant (λz) was estimated by log-linear regression, of the slope of the natural log plasma concentration vs. time curve where λz=−1×slope. The linear regression in the terminal phase used the last three to six data points. The terminal t1/2 was calculated as t1/2=ln(2)/λz.
The area under the plasma concentration time curve from time zero to the last quantifiable concentration (AUC(0,tlast)) was obtained using the linear trapezoidal method and extrapolated to infinity to obtain the total area, AUC(0,∞), with Clast/λz, where Clast is the last quantifiable plasma concentration.

[2] = Clinical assessment of local tolerability and safety in the crossover study; assay type: in vivo, human
Protocol: To assess the local tolerability profile of the SL formulation, modified Likert scales (0-10) were recorded at 5, 10, 15, 30 and 45 min and 1 h post-dose administration at various time points for both the SL and i.v. formulation: • Mucosal irritation • Burning sensation • Bitterness • Nausea • Residual grittiness in the mouth
Safety assessments included scheduled adverse event probes, spontaneous adverse event (AE) reporting, physical examination, routine laboratory investigations, ECGs and vital sign evaluation.
Vital signs (including systolic and diastolic blood pres-sure, pulse, respiratory rate and body temperature) were performed predose and at hours 0.5, 1, 2, 4, 6, 8, 12 and 24 h post-dose. Pulse oximetry was recorded predose and continuously for the first 3 h post-dose administration

[3] = system: treatment-resistant major depressed patients; settings: cited from earlier work
[4] = cited from earlier work
[5] = sublingually administered ketamine; cited from earlier work
[6] = system: mouse tests of antidepressant efficacy; settings: up to a 30-fold range of doses, multiple mouse tests; cited from earlier work
NMDA receptors = settings: cited from earlier work
[7] = individual subjects, 10 mg as 30 min i.v. infusion
[8] = individual subjects, 25 mg sublingually as a wafer
[9] = both routes (10 mg i.v., 25 mg SL)
[10] = i.v. infusion, treatment-resistant major depressed patients

SMILES: CNC1(c2ccccc2Cl)CCCCC1=O (racemic) [RS ketamine, ketamine]
- Cmax, peak plasma concentration (i.v.) ([1]; Gmean of eight healthy volunteers, 10 mg as 30 min i.v. infusion): 128.1 ng/ml^−1
- Cmax, peak plasma concentration (SL) ([1]; Gmean of eight healthy volunteers, 25 mg sublingually as a wafer): 71.1 ng/ml^−1
- first quantifiable ketamine plasma concentrations observed at ([1]; all participants, both administration routes (i.v. and SL), first post-dose sample): 5 min
- AUC(0-inf) ([1]; human, plasma, 25 mg, AUC(0,∞) (SL), individual subjects, 25 mg sublingually as a wafer): 204 ng·h/mL
- AUC(0-inf) ([1]; human, plasma, iv, 10 mg, AUC(0,∞) (i.v.), individual subjects, 10 mg as 30 min i.v. infusion): 270 ng·h/mL
- clearance ([1]; human, plasma, iv, 10 mg, individual subjects, 10 mg as 30 min i.v. infusion): 997 mL/min
- bioavailability ([1]; human, plasma, 25 mg, individual subjects, 25 mg SL wafer vs 10 mg i.v., dose adjusted AUC(0,∞)): 30%
- AUC(0,∞) (i.v.) [1, 7]: 289.2 ng·h/mL and 299.4 ng·h/mL and 261.0 ng·h/mL and 167.2 ng·h/mL and 282.7 ng·h/mL and 243.2 ng·h/mL and 254.8 ng·h/mL
- CL, clearance following i.v. administration [1, 7]: 37.0 L/h and 34.6 L/h and 33.4 L/h and 36.3 L/h and 35.4 L/h and 41.1 L/h and 39.3 L/h
- Vz, apparent volume of distribution following i.v. administration [1, 7]: 253 L and 300 L and 164 L and 385 L and 375 L and 126 L and 158 L and 283 L
- Cmax, peak plasma concentration (i.v.) ([1]; individual subjects, 10 mg as 30 min i.v. infusion, healthy volunteers): 124.2 ng/ml^−1 and 120.4 ng/ml^−1 and 101.9 ng/ml^−1 and 83.2 ng/ml^−1 and 81.1 ng/ml^−1 and 226.7 ng/ml^−1 and 166.3 ng/ml^−1 and 160.3 ng/ml^−1
- F, bioavailability ([1]; individual subjects, 25 mg SL wafer vs 10 mg i.v., dose adjusted AUC(0,∞)): 23% and 38% and 28% and 27%
- AUC(0,∞) (SL) [1, 8]: 171.9 ng·h/mL and 211.3 ng·h/mL and 166.1 ng·h/mL and 151.6 ng·h/mL and 202.9 ng·h/mL and 162.5 ng·h/mL and 134.3 ng·h/mL
- t1/2, terminal half-life (SL) [1, 8]: 5.5 h and 3.5 h and 2.3 h and 4.6 h and 5.1 h and 2.9 h and 1.8 h and 3.2 h
- Cmax, peak plasma concentration (SL) ([1]; individual subjects, 25 mg sublingually as a wafer, healthy volunteers): 60.2 ng/ml^−1 and 50.0 ng/ml^−1 and 75.1 ng/ml^−1 and 51.8 ng/ml^−1 and 61.2 ng/ml^−1 and 88.8 ng/ml^−1 and 128.3 ng/ml^−1 and 76.7 ng/ml^−1
- AUC(0-inf) ([1]; male, human, plasma, 25 mg, AUC(0,∞) (SL), Gmean of eight healthy volunteers, 25 mg sublingually as a wafer): 185 ng·h/mL
- half-life ([1]; male, human, plasma, 25 mg, t1/2, terminal half-life (SL), 25 mg sublingually as a wafer): 3.4 h
- AUC(0-inf) ([1]; male, human, plasma, iv, 10 mg, AUC(0,∞) (i.v.), Gmean of eight healthy volunteers, 10 mg as 30 min i.v. infusion): 255 ng·h/mL
- clearance ([1]; male, human, plasma, iv, 10 mg, Gmean of eight healthy volunteers, 10 mg as 30 min i.v. infusion): 653 mL/min
- Vd ([1]; male, human, plasma, iv, 10 mg, Vz, apparent volume of distribution following i.v. administration, Gmean of eight healthy volunteers, 10 mg as 30 min i.v. infusion): 237 L
- half-life ([1]; male, human, plasma, iv, 10 mg, t1/2, terminal half-life (i.v.), 10 mg as 30 min i.v. infusion): 4.5 h
- bioavailability ([1]; male, human, plasma, 25 mg, median (lower, upper 90% CI limit in text) of eight healthy volunteers, 25 mg SL wafer vs 10 mg i.v.): 29%
- extrapolated portion of the AUC(0,∞) ([1]; SL dosing): 2-9%
- extrapolated portion of the AUC(0,∞) ([1]; i.v. dosing): 3-7%
- onset of adverse events ([2]; 10 mg i.v.): 6 to 22 min
- onset of adverse events ([2]; 25 mg SL dosing): 5 to 18 min
- adverse events terrible taste in mouth, blurred vision, decreased sensation in arm and dizziness, number of each ([2]; SL): one
- duration of adverse events [2, 9]: less than 1 h
- serious adverse events [2, 9]: no serious adverse events
- severity of adverse events [2, 9]: mild
- local and systemic tolerability ([2]; both routes of administration): very good
- adverse events thought to be related to treatment, number reported ([2]; both routes, eight volunteers): Nineteen
- adverse events body feels heavy, dry mouth and visual disturbance, number of each ([2]; i.v.): one
- treatment of non-melancholic or anxious depression patients as measured by MADRS ([3]; 6 repeated IV doses 0.5 mg/kg, Wang et al): effectively treated
- patients who maintained response for at least 7 days [3, 10]: 35%
- time to manifestation of antidepressant effects post-infusion [3, 10]: ≤ 2 h
- anti-depressive effects as measured by MADRS ([3]; single IV dose 0.5 mg/kg, Zarate et al): caused anti-depressive effects
- efficacy for the treatment of depression, comparison with esketamine ([3]; single dose IV 0.5 mg/kg, Bahji et al meta-analysis): more efficacious than intransal esketamine
- duration of action as an anaesthetic ([4]; depending on dose): approximately 30 minutes
- terminal half-life ([4]; racemic drug): approximately 3 hours
- bioavailability values reported in the literature [5]: 24-32.2%

SMILES: CN[C@@]1(c2ccccc2Cl)CCCCC1=O [(R)-ketamine]
- antidepressant efficacy compared with (S)-ketamine [6]: superior to (S)-ketamine

SMILES: CN[C@]1(c2ccccc2Cl)CCCCC1=O [S enantiomer, (S)-ketamine]
- potency relative to R enantiomer (times more potent) (NMDA receptors; in humans in vivo): approximately 3 times

SMILES: NC1(c2ccccc2Cl)CCCCC1=O (centres unmarked) [norketamine]
- potency as NMDA antagonists relative to parent molecules (times less) (NMDA receptors): 5-8 times

Reference: patent publication US20240350434A1, “METHODS FOR TREATING MAJOR DEPRESSIVE DISORDER AND TREATMENT-RESISTANT DEPRESSION” (iX Biopharma Limited, priority 2020, published 2024)
